Test results from patent US20090181467A1, “Method of assessing and of activating the alternative cellular energy (ACE) pathway in the therapy of diseases” (MI Hope Inc. dba Progressive University, priority 2008, published 2009).

Tests used:
[1] = system: alternative cellular energy (ACE) pathway; assay: neutral red dye / UV-A light activation of the ACE pathway in patients; assay type: in vivo, human
Description: A series of patients have been seen who have a history of recurrent herpes simplex virus (HSV) skin lesions, or a past history of herpes zoster virus (HZV) infections, but with no actual skin lesions present at the time of examination. Another series of patients were recruited from among the patients attending a chiropractic clinic for various pain or impaired mobility related conditions. Under the direction of the inventor, both groups of patients were asked to volunteer for a study on assessing and, if necessary, activating the ACE pathway. Q-tips were used to sample various areas of their skin as well as the mucosal (buccal) surface of their mouths. Urine samples were also collected. The materials were checked for direct fluorescence using a 15W ultraviolet-A light emitting spiral fluorescent light (Halco, ProLume light). The swabs were then touched against other Q-tips that were soaked in an approximately 1 mg/ml solution of neutral red. Several drops of the neutral red solution were added to the urine. The Q-tips and urine were again examined under UV-A light for discernable fluorescence compared to Q-tips exposed only to neutral red. […] Clinic staff similarly tested and gave negative results.
Skin areas of the patients from which fluorescing material were obtained were then wiped with absorbent cloth. These cloth was placed over areas of skin from which the material was collected, stained with neutral red, and exposed to UV-A light from spiral fluorescent bulbs. Under UV illumination, fluorescence developed in areas of skin beneath and adjacent to the stained cloth. The fluorescence lasted for varying periods of time extending in one patient to 3 hours, but generally less than 1 hour. […] Similarly, in most patients there was no discernable fluorescing material when the patients were seen the next day. […] A person commented upon the relief they experienced from a chronically painful shoulder that had resulted from injuries received years earlier in a car accident. Another patient's personality transformed from expressions of anger and hostility to one of laughter and smiles.

[2] = system: active skin lesions caused by herpes simplex virus (HSV), herpes zoster virus (HZV) and human papillomavirus (HPV) infections; conditions: cited from earlier work

Structure (SMILES): Cc1cc2nc3ccc(N(C)C)cc3nc2cc1N.Cl [neutral red]
- sense of wellness ([1]; all patients, at the end of period of UV illumination): much improved sense of wellness
- severity of the pain and restricted mobility symptoms ([1]; chiropractic patients, following day): marked reductions
- persistence of benefits after a therapy session ([1]; no additional intervention): 2-3 weeks
- vitality ([1]; patients with prior history of recurrent HSV infections, immediately after therapy session and next day): improved vitality
- healing of active skin lesions [2]: successfully used in expediting the healing
